Measurements from patent US20250154198A1, “PEPTIDE INHIBITORS OF INTERLEUKIN-23 RECEPTOR” (Zealand Pharma A/S, priority 2021, published 2025).
Like-named read-outs stand apart in the source and are kept apart here. *1 amine or outer side, *2 acyl side, *3 side chain or, on linkers, in order; H or OH if unused. Where a SMILES comes first, the peptide text is derived from it. Bridges are numbered along the chain shown (N, C = ends). [ ]: non-standard residue; d: D form. 2Nal = N[C@@H](Cc1ccc2ccccc2c1)C(=O)O; αMeL = CC(C)C[C@](C)(N)C(=O)O; CH2COCH2 = O=C(C[*:1])C[*:2]; αMeK = C[C@](N)(CCCCN)C(=O)O

Experiments:
human IL-23R = molecular target: T1, human IL-23R (Homo sapiens, UniProt Q5VWK5); assay: Binding assay (NanoBRET displacement of fluorophore-labelled reference compound) for estimating binding affinity to human IL-23R; details: for Ki: Table 3-1, read-out: Ki hIL-23R
T1 construct: UniProtKB—Q5VWK5, amino acids 22-629; secretion signal of the plasmid (Promega N1371); expressed in transfected cells
T1 sequence (Q5VWK5 22-629): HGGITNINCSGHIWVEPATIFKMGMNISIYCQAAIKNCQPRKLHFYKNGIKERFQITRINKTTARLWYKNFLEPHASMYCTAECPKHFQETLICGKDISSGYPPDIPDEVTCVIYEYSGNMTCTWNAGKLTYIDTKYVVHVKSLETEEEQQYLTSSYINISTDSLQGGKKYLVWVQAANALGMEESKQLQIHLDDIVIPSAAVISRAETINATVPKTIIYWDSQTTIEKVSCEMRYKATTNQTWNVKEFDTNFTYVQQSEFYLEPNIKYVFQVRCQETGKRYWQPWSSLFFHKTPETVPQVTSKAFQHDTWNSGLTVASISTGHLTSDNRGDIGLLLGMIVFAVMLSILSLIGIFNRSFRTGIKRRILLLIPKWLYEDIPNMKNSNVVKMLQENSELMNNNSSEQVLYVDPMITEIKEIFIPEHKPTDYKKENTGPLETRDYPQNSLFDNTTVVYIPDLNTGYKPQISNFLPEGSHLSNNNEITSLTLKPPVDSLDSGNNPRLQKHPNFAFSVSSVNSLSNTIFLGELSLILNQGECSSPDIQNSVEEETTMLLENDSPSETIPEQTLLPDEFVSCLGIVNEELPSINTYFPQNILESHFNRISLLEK

[1] = molecular target: IL-23 mediated phospho-STAT3 formation in DB cells (Homo sapiens, UniProt Q5VWK5); assay: Functional inhibition of IL-23 mediated STAT3 signalling (phospho-STAT3 Tyr705 MSD) in DB cells; format: cell-based; details: DB cells, read-out: IC50 (pSTAT3)
Excerpt: Functional Inhibition of IL-23 Mediated STAT3 Signalling by Compounds
Upon binding of IL-23, the IL-23R forms a heterodimer signalling complex together with IL-12R β1, which through the JAK2/STAT3 pathway promotes phosphorylation of STAT3 to form phospho-STAT3.
The assay was used to quantify the functional antagonism of a compound and to rank order the inhibitor compounds according to their potency. For compounds tested in this assay, the response was normalized relative to control values to calculate the IC50 and maximal inhibitory response from a concentration response curve of the compound in presence of a fixed concentration of human IL-23.
The assay procedure was as follows. […] Following preincubation of the DB cells with inhibitor for 15 min in a cell incubator (37° C., 5% CO2), 20 μL of the prepared 3× the EC80 of hIL-23 solution was added to each well and incubated for 90 min in a cell incubator (37° C., 5% CO2). For some wells buffer only or IL-23 only corresponding to the EC80 was added to obtain readouts needed for normalization. To terminate the assay, the plate was spun at 1000 G for 5 min to pellet cells, the supernatant removed using an 8-channel manual pipette, and then added 50 μL/well Complete Lysis Buffer from the MSD STAT3 kit (Cat #K150SVD, Mesoscale) to the cell pellet. To completely lyse cells to release phospho-STAT3 for detection, the plate was shaken for 10 min at room temperature (500 rpm) sealed with aluminum foil and placed at −80° C. for a minimum of 15 min. Detection of the phospho-STAT3 level in the cell lysate from the individual wells was determined using the MSD STAT3 kit (Cat #K150SVD, Mesoscale) and read on a Meso QuickPlex SQ 120 plate reader (Mesoscale).
For data analysis raw data counts from the Meso QuickPlex SQ 120 plate reader were normalized relative to the response by the EC80 of hIL-23 alone (no compound added) and the buffer level. Compound potency (IC50) and maximal inhibitory response (% inhibition) were estimated by computer-aided curve fitting using a 4-parameter logistic (4PL) non-linear model.

SMILES	Ki (human IL-23R) [nM]	IC50 ([1]; Table 3-1) [nM]	further results
CC(C)C[C@@H]1NC(=O)[C@H](Cc2c[nH]c3ccccc23)NC(=O)[C@H](Cc2c[nH]c3ccccc23)NC(=O)[C@@H]2CSCC(=O)CSC[C@H](NC(=O)[C@H](CO)NC(=O)[C@@H](NC(=O)[C@@H](N)CC(=O)O)CCC(=O)NCCCC[C@@H](C(=O)N[C@@H](CCCNC(=N)N)C(N)=O)NC1=O)C(=O)N[C@@H](Cc1c[nH]c3ccccc13)C(=O)N[C@@H](CCC(N)=O)C(=O)N2 [Compound 4, H-DE(1c)SC(2a)WQC(2a)WWLK(1c)R-[NH2]] (HELM PEPTIDE1{D.E.S.C.W.Q.C.W.W.L.K.R.[am]}|CHEM1{[O=C(C[*:1])C[*:2]]}$PEPTIDE1,PEPTIDE1,2:R3-11:R3|PEPTIDE1,CHEM1,4:R3-1:R1|PEPTIDE1,CHEM1,7:R3-1:R2$$$V2.0)	–	–	potency depending on location of the amide bond in the [2,11] lactam bridge (in words) (human IL-23R; Compound 7 (amide closer to position 11) versus Compound 4 (closer to position 2), Table 2-3b): less active; IC50 ([1]; Table 2-3b): > 1000 nM; IC50 ([1]; Table 2-4b): > 1000 nM; IC50 ([1]; Table 2-5b): > 1000 nM
CC(=O)N[C@@H](CC(=O)O)C(=O)N[C@H]1CCC(=O)NCCCC[C@@H](C(N)=O)NC(=O)[C@H](CC(C)C)NC(=O)[C@H](Cc2c[nH]c3ccccc23)NC(=O)[C@H](Cc2c[nH]c3ccccc23)NC(=O)[C@@H]2CSCC(=O)CSC[C@H](NC(=O)[C@H](CO)NC1=O)C(=O)N[C@@H](Cc1c[nH]c3ccccc13)C(=O)N[C@@H](CCC(N)=O)C(=O)N2 [Compound 11, [Ac]-DE(1c)SC(2a)WQC(2a)WWLK(1c)-[NH2]] (HELM PEPTIDE1{[ac].D.E.S.C.W.Q.C.W.W.L.K.[am]}|CHEM1{[O=C(C[*:1])C[*:2]]}$PEPTIDE1,PEPTIDE1,3:R3-12:R3|PEPTIDE1,CHEM1,5:R3-1:R1|PEPTIDE1,CHEM1,8:R3-1:R2$$$V2.0)	–	> 1000	–
CC(=O)N[C@H]1CCC(=O)NCCCC[C@@H](C(N)=O)NC(=O)[C@H](CC(C)C)NC(=O)[C@H](Cc2c[nH]c3ccccc23)NC(=O)[C@H](Cc2c[nH]c3ccccc23)NC(=O)[C@@H]2CSCC(=O)CSC[C@H](NC(=O)[C@H](CO)NC1=O)C(=O)N[C@@H](Cc1c[nH]c3ccccc13)C(=O)N[C@@H](CCC(N)=O)C(=O)N2 [Compound 12, [Ac]-E(1c)SC(2a)WQC(2a)WWLK(1c)-[NH2]] (HELM PEPTIDE1{[ac].E.S.C.W.Q.C.W.W.L.K.[am]}|CHEM1{[O=C(C[*:1])C[*:2]]}$PEPTIDE1,PEPTIDE1,2:R3-11:R3|PEPTIDE1,CHEM1,4:R3-1:R1|PEPTIDE1,CHEM1,7:R3-1:R2$$$V2.0)	–	> 1000	–
CC(=O)N[C@H]1CCCCNC(=O)CC[C@@H](C(=O)N[C@@H](CCCNC(=N)N)C(N)=O)NC(=O)[C@H](CC(C)C)NC(=O)[C@H](Cc2ccc3ccccc3c2)NC(=O)[C@H](Cc2c[nH]c3ccccc23)NC(=O)[C@@H]2CSCC(=O)CSC[C@H](NC(=O)[C@H](CO)NC1=O)C(=O)N[C@@H](Cc1ccc3ccccc3c1)C(=O)N[C@@H](CCC(N)=O)C(=O)N2 [Compound 25, [Ac]-K(1c)SC(2a)[2-Nal]QC(2a)W[2-Nal]LE(1c)R-[NH2]] (Ac-KSC[2Nal]QCW[2Nal]LER-NH2; lactam 1-10; linker 3-6 via CH2COCH2)	–	> 1000	–
CC(=O)N[C@@H](CC(=O)O)C(=O)N[C@H]1CCC(=O)NCCCC[C@@H](C(=O)N[C@@H](CCCNC(=N)N)C(N)=O)NC(=O)[C@](C)(CC(C)C)NC(=O)[C@H](Cc2c[nH]c3ccccc23)NC(=O)[C@H](Cc2ccc(O)cc2)NC(=O)[C@@H]2CSCC(=O)CSC[C@H](NC(=O)[C@H](CCC(N)=O)NC1=O)C(=O)N[C@@H](Cc1c[nH]c3ccccc13)C(=O)N[C@@H](CCC(N)=O)C(=O)N2 [Compound 55, [Ac]-DE(1c)QC(2a)WQC(2a)YW[2-Me-Leu]K(1c)R-[NH2]] (HELM PEPTIDE1{[ac].D.E.Q.C.W.Q.C.Y.W.[CC(C)C[C@](C)(N[*:1])C(=O)[*:2]].K.R.[am]}|CHEM1{[O=C(C[*:1])C[*:2]]}$PEPTIDE1,PEPTIDE1,3:R3-12:R3|PEPTIDE1,CHEM1,5:R3-1:R1|PEPTIDE1,CHEM1,8:R3-1:R2$$$V2.0)	–	> 1000	–
CC(=O)N[C@@H](CC(=O)O)C(=O)N[C@H]1CCC(=O)NCCCC[C@@H](C(=O)N[C@@H](CCCNC(=N)N)C(N)=O)NC(=O)[C@](C)(CC(C)C)NC(=O)[C@H](Cc2c[nH]c3ccccc23)NC(=O)[C@H](Cc2ccc3ccccc3c2)NC(=O)[C@@H]2CSCC(=O)CSC[C@H](NC(=O)[C@H](CCC(N)=O)NC1=O)C(=O)N[C@@H](Cc1c[nH]c3ccccc13)C(=O)N[C@@H](CCC(N)=O)C(=O)N2 [Compound 56, [Ac]-DE(1c)QC(2a)WQC(2a)[2-Nal]W[2-Me-Leu]K(1c)R-[NH2]] (Ac-DEQCWQC[2Nal]W[αMeL]KR-NH2; lactam 2-11; linker 4-7 via CH2COCH2)	–	> 1000	–
CC(=O)N[C@@H](CC(=O)O)C(=O)N[C@H]1CCC(=O)NCCCC[C@@H](C(=O)N[C@@H](CCC(=O)O)C(=O)N[C@@H](CC(N)=O)C(=O)NCC(N)=O)NC(=O)[C@](C)(CCCCN)NC(=O)[C@H](Cc2ccc3ccccc3c2)NC(=O)[C@H](Cc2c[nH]c3ccccc23)NC(=O)[C@@H]2CSCC(=O)CSC[C@H](NC(=O)[C@H](CO)NC1=O)C(=O)N[C@@H](Cc1c[nH]c3ccccc13)C(=O)N[C@@H](CCC(N)=O)C(=O)N2 [Compound 61, [Ac]-DE(1c)SC(2a)WQC(2a)W[2-Nal][2-Me-Lys]K(1c)ENG-[NH2]] (Ac-DESCWQCW[2Nal][αMeK]KENG-NH2; lactam 2-11; linker 4-7 via CH2COCH2)	–	> 1000	–

Continued, in another order:

Ki (human IL-23R) [nM]	IC50 ([1]; Table 3-1) [nM]	SMILES	further results
> 1000	> 1000	CC(C)C[C@@H]1NC(=O)[C@H](Cc2c[nH]c3ccccc23)NC(=O)[C@H](Cc2c[nH]c3ccccc23)NC(=O)[C@@H]2CCCCNC(=O)CC[C@H](NC(=O)[C@H](CO)NC(=O)[C@@H](NC(=O)[C@@H](N)CC(=O)O)CSCC(=O)CSC[C@@H](C(=O)N[C@@H](CCCNC(=N)N)C(N)=O)NC1=O)C(=O)N[C@@H](Cc1c[nH]c3ccccc13)C(=O)N[C@@H](CCC(N)=O)C(=O)N2 [Compound 5, H-DC(1a)SE(2c)WQK(2c)WWLC(1a)R-[NH2]] (HELM PEPTIDE1{D.C.S.E.W.Q.K.W.W.L.C.R.[am]}|CHEM1{[O=C(C[*:1])C[*:2]]}$PEPTIDE1,CHEM1,2:R3-1:R1|PEPTIDE1,CHEM1,11:R3-1:R2|PEPTIDE1,PEPTIDE1,4:R3-7:R3$$$V2.0)	–
> 1000	> 1000	CC(C)C[C@@H]1NC(=O)[C@H](Cc2c[nH]c3ccccc23)NC(=O)[C@H](Cc2c[nH]c3ccccc23)NC(=O)[C@@H]2CSCC(=O)CSC[C@H](NC(=O)[C@H](CO)NC(=O)[C@H](CC(=O)O)NC(=O)[C@H](CCCNC(=N)N)NC1=O)C(=O)N[C@@H](Cc1c[nH]c3ccccc13)C(=O)N[C@@H](CCC(N)=O)C(=O)N2 [Compound 6, D(1c)*SC(2a)WQC(2a)WWLR(1c)*] (HELM PEPTIDE1{C.W.Q.C.W.W.L.R.D.S}|CHEM1{[O=C(C[*:1])C[*:2]]}$PEPTIDE1,CHEM1,1:R3-1:R1|PEPTIDE1,CHEM1,4:R3-1:R2|PEPTIDE1,PEPTIDE1,1:R1-10:R2$$$V2.0)	–
> 1000	> 1000	CC(C)C[C@@H]1NC(=O)[C@H](Cc2c[nH]c3ccccc23)NC(=O)[C@H](Cc2c[nH]c3ccccc23)NC(=O)[C@@H]2CSCC(=O)CSC[C@H](NC(=O)[C@H](CO)NC(=O)[C@@H](NC(=O)[C@@H](N)CC(=O)O)CCC(=O)NCC[C@@H](C(=O)N[C@@H](CCCNC(=N)N)C(N)=O)NC1=O)C(=O)N[C@@H](Cc1c[nH]c3ccccc13)C(=O)N[C@@H](CCC(N)=O)C(=O)N2 [Compound 9, H-DE(1c)SC(2a)WQC(2a)WWL[Dab](1c)R-[NH2]] (HELM PEPTIDE1{D.E.S.C.W.Q.C.W.W.L.[Dab].R.[am]}|CHEM1{[O=C(C[*:1])C[*:2]]}$PEPTIDE1,PEPTIDE1,2:R3-11:R3|PEPTIDE1,CHEM1,4:R3-1:R1|PEPTIDE1,CHEM1,7:R3-1:R2$$$V2.0)	–
